Reference: patent US12264127B1, “8-((3-formyl-4-hydroxyphenyl)diazenyl)naphthalene-1,3-disulfonic acid as an antioxidant compound” (KING FAISAL UNIVERSITY, priority 2023, dated 2025)

Assay: DPPH radical scavenging antioxidant test
Format: biochemical
Conditions: 517 nm; for Inhibition (radical scavenging inhibition): 0.2 mL DPPH (0.75 mM), compound 3 μM in ethanol, 30 min incubation in the dark
Protocol: The antioxidant properties of the 8-((3-formyl-4-hydroxyphenyl)diazenyl)naphthalene-1,3-disulfonic acid were studied by adding 0.2 mL DPPH (0.75 mM)) to compound 8-((3-formyl-4-hydroxyphenyl)diazenyl)naphthalene-1,3-disulfonic acid (III) (3 μM) in ethanol. After 30 min of incubation in the dark, the absorbance was read against a blank at 517 nm. Ascorbic acid (vitamin C) was used as standard antioxidants (positive control). A blank sample was prepared by 0.2 ml of DPPH in 3 ml ethanol. A negative control sample was run using ethanol instead of the sample. The radical scavenging inhibition was calculated using the following equation: […]
The antioxidant activity for the synthesized compound is listed in Table 1, using Vitamin C as a reference.

Row | SMILES | Inhibition (radical scavenging inhibition) [%] | antioxidant potential compared to vitamin C (in words) (DPPH in vitro test, vitamin C as positive control)
1 | O=Cc1cc(N=Nc2cccc3cc(S(=O)(=O)O)cc(S(=O)(=O)O)c23)ccc1O [Product III, 8-((3-formyl-4-hydroxyphenyl)diazenyl)naphthalene-1,3-disulfonic acid] | 54 | high potential as an antioxidant compared to vitamin C
2 | O=C1O[C@H]([C@@H](O)CO)C(O)=C1O [vit c, Ascorbic acid, reference compound] | 74 | –
